{"source": "patent US12171229B2", "about": "“Heteroaryl-triazole and heteroaryl-tetrazole compounds as pesticides” (BAYER AKTIENGESELLSCHAFT, priority 2018, dated 2024)", "format_in_all_cases": "in vivo", "key": {"[1]": {"tested_on": "Blattella germanica strain PAULINIA", "assay": "whole plant or invertebrate", "conditions": "read-out: efficacy (mortality)", "method": "Blattella Germanica Test (BLTTGE Surface Treatment & Contact Assay)\nSolvent: Aceton+2000 ppm rapeseed oil methyl ester (RME)\nIn order to produce a sufficient, active ingredient containing solution it is necessary to solve the test compound in the solvent-mix (acetone at 2 mg/ml/RME 2000 ppm). This solution is pipetted onto a glazed tile and after evaporation of the acetone, adult animals of the species Blattella germanica strain PAULINIA are placed onto the dried surface. The exposure time is 30 minutes.\nMortality in percent (%) is determined 24 hours after contact of the insects to the treated surface. 100% mortality means that all tested insects are dead, whereas 0% means that no insect died."}, "Diabrotica balteata": {"tested_on": "Diabrotica balteata", "assay": "Diabrotica balteata spray test", "conditions": "Diabrotica balteata, in Triticum aestivum, 168 h, after 7 days, larvae on wheat seeds, read-out: efficacy (seedlings grown up)", "summary_of_the_method": "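Scoring at 7 days compares seedling growth with untreated, uninfested controls (100% = equal growth, 0% = none grown). Wheat seedlings germinated 1 day on agar, 5 per well, received a spray of test solution made in 1000 ppm emulsifier water. Each unit then received 10–20 beetle larvae.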"}, "[2]": {"tested_on": "cattle ticks (Boophilus microplus) strane Parhurst, SP-resistant", "assay": "Boophilus microplus dip test", "conditions": "Rhipicephalus microplus, 168 h, engorged adult female cattle ticks, egg deposition after 7 days, read-out: efficacy (infertile eggs)", "method": "Boophilus microplus—Dip Test\nTest animal: cattle ticks (Boophilus microplus) strane Parhurst, SP-resistant\nSolvent: dimethyl sulfoxide\nTo produce a suitable preparation of active compound, 10 mg of active compound are dissolved in 0.5 ml solvent, and the concentrate is diluted with water to the desired concentration.\nThis compound solution is pipetted into tubes. 8-10 engorged, adult, female cattle ticks (Boophilus microplus) are placed in perforated tubes. These tubes are immersed in the aqueous compound solution until the ticks are completely moistened. After the liquid has drained off, the ticks are transferred to a filter paper in a plastic tray and stored in a climate chamber.\nAfter 7 days egg deposition of fertile eggs is monitored. Eggs where fertility is not visible are stored in a climate chamber till hatching after about 42 days. An efficacy of 100% means all eggs are infertile; 0% means all eggs are fertile."}, "[3]": {"tested_on": "Aedes aegypti strain MONHEIM", "assay": "Aedes aegypti test (AEDSAE surface treatment & contact assay)", "conditions": "24 hours after contact, read-out: efficacy (mortality)", "summary_of_the_method": "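Compound dissolved in acetone (2 mg/ml) with 2000 ppm rapeseed oil methyl ester, applied to glazed tile and dried; adult strain MONHEIM mosquitoes exposed 30 minutes. Percent mortality scored 24 hours after contact.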"}}, "data": [{"smiles": "CC(c1ncnn1-c1ccc(C#N)cn1)N(CC1CC1)C(=O)c1cc(Cl)cc(C(F)(F)F)c1", "note": "(stereo not drawn) [Example I-007]", "values": [{"measurement": "mortality at 20 mg/m2", "setting": "[1]", "result": "80 to 100", "unit": "%"}, {"measurement": "pest or weed control at 80 µg/disc, 250 g/ha", "setting": "Diabrotica balteata; 80 μg/well (=250 g/ha)", "result": 100, "unit": "%"}, {"measurement": "pest or weed control at 160 µg/disc, 500 g/ha", "setting": "Diabrotica balteata; 160 μg/well (=500 g/ha)", "result": 100, "unit": "%"}, {"measurement": "pest or weed control at 100 ppm", "setting": "[2]", "result": 80, "unit": "%"}, {"measurement": "mortality at 4 mg/m2", "setting": "[3]; surface concentration 4 mg/m^2, exposure 30 minutes", "result": "90 to 100", "unit": "%"}, {"measurement": "mortality at 20 mg/m2", "setting": "[3]; surface concentration 20 mg/m^2, exposure 30 minutes", "result": "90 to 100", "unit": "%"}]}]}
